Patent US8404691B2, “Imidazothiazole derivatives having proline ring structure” (Daiichi Sankyo Company, Limited, priority 2009, dated 2013)

Key:
[1] = test system: human lung cancer-derived cell line NCI-H460 having wild-type p53; assay: Cell growth inhibition assay (MTT); format: cell-based; settings: 72 h, NCI-H460 cells, culturing 3 days, read-out: anti-cellular effect GI50 (50% growth inhibition concentration)
Protocol: A cell growth inhibition assay was conducted using human lung cancer-derived cell line NCI-H460 having wild-type p53.
NCI-H460 cells were suspended in a medium (RPMI1640 medium containing 10% fetal bovine serum) and the suspension was inoculated in an amount of 500 cells/150 μL/well to a 96-well multiwell plate. A test compound was dissolved in DMSO and this solution was diluted with medium to prepare a sample solution (DMSO concentration: 1% or lower). On the next day of inoculation, medium nonsupplemented with the test compound or the sample solution was added in an amount of 50 μL/well. The MTT assay was conducted immediately after the medium was added in an amount of 50 μL on the next day of cell inoculation, and after the sample solution or the medium was added to cells followed by culturing at 37° C. for 3 days in a 5% CO2 atmosphere. The MTT assay was conducted as shown below.
A 5 mg/mL MTT (3-(4,5-dimethylthiazol-2-yl)-2,5-diphenyltetrazolium bromide, Sigma-Aldrich Co., M-2128) solution was prepared using a phosphate buffer solution (Dulbecco's Phosphate-buffered Saline). This MTT solution was added in an amount of 20 μL/well. Then, the plate was cultured at 37° C. for 4 hours in a 5% CO2 atmosphere. The plate was centrifuged at 1200 rpm for 5 minutes and then the culture supernatant was removed by aspiration using a dispenser. DMSO was added in an amount of 150 μL/well to dissolve generated formazan. The plate was stirred using a plate mixer for uniform color development from each well. The absorbance of each well was measured under conditions of OD 540 nm and reference 660 nm using a plate reader (SpectraMax PLUS384, Molecular Devices, CA, USA).
The OD value measured on the day of adding the sample solution was defined as S. The OD value measured three days after addition of the sample solution was defined as T. The OD value measured three days after addition of the DMSO dilution was defined as C. T/C (%) was determined at each concentration according to the calculation formula shown below to prepare a dose response curve, from which 50% growth inhibition concentration (GI50 value) was calculated. T/C(%)=(T−S)/(C−S)×100

Mdm2/p53 binding = target: T1, Mdm2/p53 binding (Homo sapiens, UniProt Q00987, L33E); assay: Mdm2/p53 binding assay (HTRF, His-p53 and GST-Mdm2); settings: His-p53 (aa 1-132) and GST-Mdm2 (aa 25-108, L33E), 6.25 nM each, 25° C. for 1 hour
T1 construct: Mdm2 amino acids at positions 25 to 108
Protocol: Next, a test compound was diluted with DMSO to produce protein buffer solution containing 10% dilution, and this buffer solution was added in an amount of 4 μL/well to the plate.
These dilutions were added in an amount of 8 μL/well (total reaction solution volume: 20 μl/well). Then, the plate was left at 25° C. for 1 hour.
The R value calculated from the well supplemented with His-p53, GST-Mdm2, the test compound, and each antibody was defined as R (sample). The R value calculated from the well supplemented with His-p53, GST-Mdm2, and each antibody but without the test compound was defined as R (control). The R value calculated from the well supplemented with GST-Mdm2, the test compound, and each antibody but without His-p53 was defined as R (background). T/C was calculated from the formula shown below. An IC50 value for Mdm2/p53 binding was calculated by sigmoid fitting. T/C=(R(sample)−R(background))/(R(control)−R(background))

[2] = Metabolic stability test (microsomal metabolism); format: in vitro ADME; settings: human liver microsomes, 37° C., 30 minutes after addition of NADP+; further: tested at 1.1 µM
Protocol: 100 μL of 100 mM phosphate buffer solution (pH 7.4) containing 3 μM test compound was added to 100 μL of reaction solution containing 100 mM phosphate buffer solution (pH 7.4), 30 mM glucose 6-phosphate, 10 mM MgCl2.6H2O, 3 units/mL glucose 6-phosphate 1-dehydrogenase, and 0.3 to 1.5 mgP/mL human liver microsomes and the mixture was incubated at 37° C. for 20 minutes. Then, 70 μL of 100 mM phosphate buffer solution (pH 7.4) containing 3 mM NADP+ was added and the mixture was further incubated at 37° C. for 30 minutes to conduct a microsomal metabolism test. The compound was quantified by the internal standard method using a quadrupole mass spectrometer connected to a high performance liquid chromatography apparatus. The metabolic stability (residual percentage of compound: MS %) was determined according to the following formula: MS(human)(%)=(peak area ratio of test compound after addition of NADP+ and incubation for 30 minutes)/(peak area ratio of test compound before addition of NADP+)×100.
(peak area ratio: peak area of test compound divided by that of internal standard substance)

T1 sequence (Q00987 25-108 L33E): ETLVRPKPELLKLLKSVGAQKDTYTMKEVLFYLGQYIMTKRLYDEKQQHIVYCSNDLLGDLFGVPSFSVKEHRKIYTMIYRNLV

CC(C)C1=C(C(=O)N2C[C@H](F)C[C@H]2C(=O)N2CC3(CC3)NC[C@H]2CO)SC2=N[C@@](C)(c3ccc(Cl)nc3)[C@@H](c3ccc(Cl)c(F)c3)N21 [Example 12, {(6S)-7-[(4R)-1-{[(5R,6S)-5-(4-chloro-3-fluorophenyl)-6-(6-chloropyridin-3-yl)-3-isopropyl-6-methyl-5,6-dihydroimidazo[2,1-b][1,3]thiazol-2-yl]carbonyl}-4-fluoro-L-prolyl]-4,7-diazaspiro[2.5]oct-6-yl}methanol]
GI50 [1]: 400 to 2500 nM
IC50 (Mdm2/p53 binding): 5 nM
MS (human) % (metabolic stability, residual percentage of compound) [2]: 69%

CC(C)C1=C(C(=O)N2C[C@H](F)C[C@H]2C(=O)N2CC3(CC3)NC[C@@H]2C(=O)O)SC2=N[C@@](C)(c3ccc(Cl)nc3)[C@@H](c3ccc(Cl)c(F)c3)N21.Cl.Cl [Example 13, (6R)-7-[(4R)-1-{[(5R,6S)-5-(4-chloro-3-fluorophenyl)-6-(6-chloropyridin-3-yl)-3-isopropyl-6-methyl-5,6-dihydroimidazo[2,1-b][1,3]thiazol-2-yl]carbonyl}-4-fluoro-L-prolyl]-4,7-diazaspiro[2.5]octane-6-carboxylic acid dihydrochloride]
GI50 [1]: 400 to 2500 nM
IC50 (Mdm2/p53 binding): 5.4 nM
MS (human) % (metabolic stability, residual percentage of compound) [2]: 100%

CC(C)C1=C(C(=O)N2C[C@H](F)C[C@H]2C(=O)N2CC3(CC3)NC[C@H]2C(=O)O)SC2=N[C@@](C)(c3ccc(Cl)nc3)[C@@H](c3ccc(Cl)c(F)c3)N21 [Example 14]
GI50 [1]: 400 to 2500 nM
IC50 (Mdm2/p53 binding): 16 nM
MS (human) % (metabolic stability, residual percentage of compound) [2]: 100%

CC(C)C1=C(C(=O)N2C[C@H](F)C[C@H]2C(=O)N2CCN(C)C3(CC3)C2)SC2=N[C@@](C)(c3ccc(Cl)nc3)[C@@H](c3ccc(Cl)c(F)c3)N21 [Example 15, 7-[(4R)-1-{[(5R,6S)-5-(4-chloro-3-fluorophenyl)-6-(6-chloropyridin-3-yl)-3-isopropyl-6-methyl-5,6-dihydroimidazo[2,1-b][1,3]thiazol-2-yl]carbonyl}-4-fluoro-L-prolyl]-4-methyl-4,7-diazaspiro[2.5]octane]
GI50 [1]: < 400 nM
IC50 (Mdm2/p53 binding): 2.7 nM
MS (human) % (metabolic stability, residual percentage of compound) [2]: 44%

CC(C)C1=C(C(=O)N2C[C@H](F)C[C@H]2C(=O)N2CC3(CC3)N(C)C[C@@H]2C)SC2=N[C@@](C)(c3ccc(Cl)nc3)[C@@H](c3ccc(Cl)c(F)c3)N21 [Example 16]
GI50 [1]: < 400 nM
IC50 (Mdm2/p53 binding): 2.3 nM
MS (human) % (metabolic stability, residual percentage of compound) [2]: 56%

CC(C)C1=C(C(=O)N2C[C@H](F)C[C@H]2C(=O)N2CC3(CC3)N(C)C[C@H]2C)SC2=N[C@@](C)(c3ccc(Cl)nc3)[C@@H](c3ccc(Cl)c(F)c3)N21 [Example 17]
GI50 [1]: 400 to 2500 nM
IC50 (Mdm2/p53 binding): 3.3 nM
MS (human) % (metabolic stability, residual percentage of compound) [2]: 44%

CC(C)C1=C(C(=O)N2C[C@H](F)C[C@H]2C(=O)N2CCNC3(CC3)C2)SC2=N[C@@](C)(c3ccc(Cl)cc3)[C@@H](c3ccc(Cl)cc3)N21 [Example 18]
GI50 [1]: < 400 nM
IC50 (Mdm2/p53 binding): 1.6 nM
MS (human) % (metabolic stability, residual percentage of compound) [2]: 6%

CC(C)C1=C(C(=O)N2C[C@H](F)C[C@H]2C(=O)N2CC3(CC3)NC[C@@H]2C)SC2=N[C@@](C)(c3ccc(Cl)cc3)[C@@H](c3ccc(Cl)cc3)N21 [Example 19]
GI50 [1]: < 400 nM
IC50 (Mdm2/p53 binding): 1.6 nM
MS (human) % (metabolic stability, residual percentage of compound) [2]: 93%

CC(C)C1=C(C(=O)N2C[C@H](F)C[C@H]2C(=O)N2CC3(CC3)NC[C@H]2C)SC2=N[C@@](C)(c3ccc(Cl)cc3)[C@@H](c3ccc(Cl)cc3)N21 [Example 20]
GI50 [1]: < 400 nM
IC50 (Mdm2/p53 binding): 1.4 nM
MS (human) % (metabolic stability, residual percentage of compound) [2]: 36%

CC[C@H]1CNC2(CC2)CN1C(=O)[C@@H]1C[C@@H](F)CN1C(=O)C1=C(C(C)C)N2C(=N[C@@](C)(c3ccc(Cl)cc3)[C@H]2c2ccc(Cl)cc2)S1 [Example 21]
GI50 [1]: < 400 nM
IC50 (Mdm2/p53 binding): 2.2 nM
MS (human) % (metabolic stability, residual percentage of compound) [2]: 96%

CC[C@@H]1CNC2(CC2)CN1C(=O)[C@@H]1C[C@@H](F)CN1C(=O)C1=C(C(C)C)N2C(=N[C@@](C)(c3ccc(Cl)cc3)[C@H]2c2ccc(Cl)cc2)S1 [Example 22]
GI50 [1]: < 400 nM
IC50 (Mdm2/p53 binding): 2.6 nM
MS (human) % (metabolic stability, residual percentage of compound) [2]: 60%

CC(C)C1=C(C(=O)N2C[C@H](F)C[C@H]2C(=O)N2CCNC3(CC3)C2)SC2=N[C@@](C)(c3ccc(Cl)cc3)[C@@H](c3ccc(Cl)c(F)c3)N21 [Example 23]
GI50 [1]: < 400 nM
IC50 (Mdm2/p53 binding): 1.6 nM
MS (human) % (metabolic stability, residual percentage of compound) [2]: 24%

CC(C)C1=C(C(=O)N2C[C@H](F)C[C@H]2C(=O)N2CCNC3(CC3)C2)SC2=N[C@@](C)(c3ccc(Cl)nc3)[C@@H](c3ccc(Cl)cc3)N21 [Example 26]
GI50 [1]: 400 to 2500 nM
IC50 (Mdm2/p53 binding): 2.7 nM
MS (human) % (metabolic stability, residual percentage of compound) [2]: 57%

CC(C)C1=C(C(=O)N2C[C@H](F)C[C@H]2C(=O)N2CC3(CC3)NC[C@@H]2C)SC2=N[C@@](C)(c3ccc(Cl)nc3)[C@@H](c3ccc(Cl)cc3)N21 [Example 27]
GI50 [1]: < 400 nM
IC50 (Mdm2/p53 binding): 1.9 nM
MS (human) % (metabolic stability, residual percentage of compound) [2]: 91%

CC(C)C1=C(C(=O)N2C[C@H](F)C[C@H]2C(=O)N2CC3(CC3)NC[C@H]2C)SC2=N[C@@](C)(c3ccc(Cl)nc3)[C@@H](c3ccc(Cl)cc3)N21 [Example 28]
GI50 [1]: 400 to 2500 nM
IC50 (Mdm2/p53 binding): 3.1 nM
MS (human) % (metabolic stability, residual percentage of compound) [2]: 51%

CC[C@H]1CNC2(CC2)CN1C(=O)[C@@H]1C[C@@H](F)CN1C(=O)C1=C(C(C)C)N2C(=N[C@@](C)(c3ccc(Cl)nc3)[C@H]2c2ccc(Cl)cc2)S1 [Example 29]
GI50 [1]: < 400 nM
IC50 (Mdm2/p53 binding): 2.6 nM
MS (human) % (metabolic stability, residual percentage of compound) [2]: 96%

CC[C@@H]1CNC2(CC2)CN1C(=O)[C@@H]1C[C@@H](F)CN1C(=O)C1=C(C(C)C)N2C(=N[C@@](C)(c3ccc(Cl)nc3)[C@H]2c2ccc(Cl)cc2)S1 [Example 30]
GI50 [1]: 400 to 2500 nM
IC50 (Mdm2/p53 binding): 3.1 nM
MS (human) % (metabolic stability, residual percentage of compound) [2]: 62%

CC(C)C1=C(C(=O)N2C[C@H](F)C[C@H]2C(=O)N2CC3(CC3)NC[C@@H]2CF)SC2=N[C@@](C)(c3ccc(Cl)nc3)[C@@H](c3ccc(Cl)c(F)c3)N21 [Example 31]
GI50 [1]: < 400 nM
IC50 (Mdm2/p53 binding): 3.1 nM
MS (human) % (metabolic stability, residual percentage of compound) [2]: 6%
